# Molecular target: T1, ttUMPK (UMP kinase of Thermus thermophilus HB8) (Thermus thermophilus, UniProt P43891)
# T1 construct: gene pyrH; full-length gene in pET-11a (NdeI/BamHI), no tag mentioned; expressed in E. coli BL21(DE3), heat-treated; homohexamer by size exclusion
# Test: X-ray crystal structure, […] Å (second data set, PDB code not given)
# Type: binding
# Details: active site, most chains
# T1 sequence (P43891 whole entry): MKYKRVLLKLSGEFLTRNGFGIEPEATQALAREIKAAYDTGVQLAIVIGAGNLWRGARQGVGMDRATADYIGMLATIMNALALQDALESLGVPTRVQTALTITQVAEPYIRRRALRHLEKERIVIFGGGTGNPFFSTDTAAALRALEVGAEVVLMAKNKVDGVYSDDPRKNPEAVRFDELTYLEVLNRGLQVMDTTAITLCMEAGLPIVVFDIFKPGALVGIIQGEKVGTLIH
smiles,measurement,value
O=c1ccn([C@@H]2O[C@H](COP(=O)(O)O)[C@@H](O)[C@H]2O)c(=O)[nH]1 [UMP],"X-ray crystal structure, 2.5 Å (second data set, PDB code not given)","most of the bound uridine nucleotides in the active site are UMP, not UDP"

# Reference: paper PMC12404492, “The crystal structure of Thermus thermophilus UMP kinase complexed with a phosphoryl group acceptor and donor” (PLOS One, 2025)
